Data taken from patent US20070281992A1, “COMBINATION OF GYRASE B INHIBITORS AND PROTEIN SYNTHESIS INHIBITORS AND USES THEREOF” (priority 2006, published 2007).
Read-outs that look alike come from different tables or passages of the source.

Assays:
Assay type in all cases: cell-based
[1] = tested on: Unconfirmed Vancomycin-intermediate Staphylococcus epidermidis Isolates; assay: MIC assay (NCCLS broth dilution), unconfirmed VISE isolates; conditions: Staphylococcus epidermidis; for MIC: read-out: Minimal Inhibitory Concentration
Method in brief: (§1)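 Broth microdilution MIC run per NCCLS M7-A6 guidelines in Mueller Hinton II broth, over 11 two-fold serial dilutions of test agent. Novobiocin/tetracycline and novobiocin/minocycline combinations were tested at a 2.5:1 ratio to mimic serum levels; vancomycin served as control agent.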

[2] = tested on: Enterococcus faecalis (ATCC 29212); assay: MIC assay, quality control strain E. faecalis ATCC 29212; conditions: ATCC29212, E. faecalis ATCC 29212, repeat runs 22FEB06-09MAR06, combinations at 2.5:1, read-out: Minimal Inhibitory Concentration, quality control
Method in brief: as §1

[3] = tested on: Methicillin-Susceptible Staphylococcus aureus Isolates; assay: MIC assay (NCCLS broth dilution), MSSA clinical isolates; conditions: for MIC: read-out: Minimal Inhibitory Concentration
Method in brief: as §1

[4] = tested on: Vancomycin-intermediate Staphylococcus epidermidis Isolates; assay: MIC assay (NCCLS broth dilution), VISE isolates; conditions: for MIC: read-out: Minimal Inhibitory Concentration
Method in brief: as §1

[5] = tested on: Methicillin-Resistant Staphylococcus aureus Isolates; assay: MIC assay (NCCLS broth dilution), MRSA clinical isolates; conditions: Staphylococcus aureus; for MIC: read-out: Minimal Inhibitory Concentration
Method in brief: as §1

[6] = Staphylococcus aureus, 52 MSSA isolates, combinations at 2.5:1, given as NB/partner
[7] = 52 MRSA isolates, combinations at 2.5:1, given as NB/partner

## Cc1onc(-c2ccccc2)c1C(=O)N[C@@H]1C(=O)N2[C@@H]1SC(C)(C)[C@@H]2C(=O)O [OX, oxacillin]
[1]; Unconfirmed VISE isolate 2024, 09MAR06
  MIC: > 32 mg/L
[1]; Unconfirmed VISE isolate 2025, 09MAR06
  MIC: 4 mg/L
[1]; Unconfirmed VISE isolate 2026, 03MAR06
  MIC: 32 mg/L
[1]; 3 unconfirmed VISE isolates, combinations at 2.5:1
  MIC50: 32 mg/L
[2]
  MIC: 8 mg/L
[3]; 52 MSSA isolates, Mueller Hinton II Broth, combinations at 2.5:1, given as NB/partner
  MIC Range: .12 to .5 mg/L
[3]; Staphylococcus aureus, MSSA isolate 133, 03MAR06
  MIC: 0.12 mg/L
[3]; Staphylococcus aureus, MSSA isolate 134, 03MAR06
  MIC: 0.25 mg/L
[3]; Staphylococcus aureus, MSSA isolate 135, 03MAR06
  MIC: 0.25 mg/L
[3]; Staphylococcus aureus, MSSA isolate 753, 22FEB06
  MIC: 0.25 mg/L
[3]; Staphylococcus aureus, MSSA isolate 754, 22FEB06
  MIC: 0.25 mg/L
[3]; Staphylococcus aureus, MSSA isolate 754, 24FEB06
  MIC: 0.25 mg/L
[3]; Staphylococcus aureus, MSSA isolate 755, 22FEB06
  MIC: 0.25 mg/L
[3]; Staphylococcus aureus, MSSA isolate 756, 03MAR06
  MIC: 0.25 mg/L
[3]; Staphylococcus aureus, MSSA isolate 779, 22FEB06
  MIC: 0.12 mg/L
[3]; Staphylococcus aureus, MSSA isolate 780, 03MAR06
  MIC: 0.25 mg/L
[3]; Staphylococcus aureus, MSSA isolate 781, 03MAR06
  MIC: 0.25 mg/L
[3]; Staphylococcus aureus, MSSA isolate 782, 22FEB06
  MIC: 0.25 mg/L
[3]; Staphylococcus aureus, MSSA isolate 783, 22FEB06
  MIC: 0.25 mg/L
[3]; Staphylococcus aureus, MSSA isolate 784, 22FEB06
  MIC: 0.25 mg/L
[3]; Staphylococcus aureus, MSSA isolate 785, 22FEB06
  MIC: 0.12 mg/L
[3]; Staphylococcus aureus, MSSA isolate 786, 22FEB06
  MIC: 0.25 mg/L
[3]; Staphylococcus aureus, MSSA isolate 787, 22FEB06
  MIC: 0.25 mg/L
[3]; Staphylococcus aureus, MSSA isolate 788, 22FEB06
  MIC: 0.25 mg/L
[3]; Staphylococcus aureus, MSSA isolate 789, 24FEB06
  MIC: 0.25 mg/L
[3]; Staphylococcus aureus, MSSA isolate 790, 24FEB06
  MIC: 0.25 mg/L
[3]; Staphylococcus aureus, MSSA isolate 791, 24FEB06
  MIC: 0.25 mg/L
[3]; Staphylococcus aureus, MSSA isolate 792, 03MAR06
  MIC: 0.12 mg/L
[3]; Staphylococcus aureus, MSSA isolate 793, 24FEB06
  MIC: 0.25 mg/L
[3]; Staphylococcus aureus, MSSA isolate 794, 24FEB06
  MIC: 0.25 mg/L
[3]; Staphylococcus aureus, MSSA isolate 994, 22FEB06
  MIC: 0.25 mg/L
[3]; Staphylococcus aureus, MSSA isolate 995, 03MAR06
  MIC: 0.12 mg/L
[3]; Staphylococcus aureus, MSSA isolate 996, 22FEB06
  MIC: 0.25 mg/L
[3]; Staphylococcus aureus, MSSA isolate 997, 22FEB06
  MIC: 0.25 mg/L
[3]; Staphylococcus aureus, MSSA isolate 998, 03MAR06
  MIC: 0.12 mg/L
[3]; Staphylococcus aureus, MSSA isolate 999, 22FEB06
  MIC: 0.25 mg/L
[3]; Staphylococcus aureus, MSSA isolate 1000, 24FEB06
  MIC: 0.25 mg/L
[3]; Staphylococcus aureus, MSSA isolate 1001, 24FEB06
  MIC: 0.25 mg/L
[3]; Staphylococcus aureus, MSSA isolate 1002, 24FEB06
  MIC: 0.5 mg/L
[3]; Staphylococcus aureus, MSSA isolate 1003, 03MAR06
  MIC: 0.25 mg/L
[3]; Staphylococcus aureus, MSSA isolate 1005, 24FEB06
  MIC: 0.25 mg/L
[3]; Staphylococcus aureus, MSSA isolate 1006, 24FEB06
  MIC: 0.25 mg/L
[3]; Staphylococcus aureus, MSSA isolate 1007, 24FEB06
  MIC: 0.25 mg/L
[3]; Staphylococcus aureus, MSSA isolate 1008, 24FEB06
  MIC: 0.25 mg/L
[3]; Staphylococcus aureus, MSSA isolate 1009, 24FEB06
  MIC: 0.5 mg/L
[3]; Staphylococcus aureus, MSSA isolate 1131, 24FEB06
  MIC: 0.5 mg/L
[3]; Staphylococcus aureus, MSSA isolate 1132, 03MAR06
  MIC: 0.12 mg/L
[3]; Staphylococcus aureus, MSSA isolate 1133, 24FEB06
  MIC: 0.5 mg/L
[3]; Staphylococcus aureus, MSSA isolate 1134, 24FEB06
  MIC: 0.25 mg/L
[3]; Staphylococcus aureus, MSSA isolate 1654, 03MAR06
  MIC: 0.12 mg/L
[3]; Staphylococcus aureus, MSSA isolate 1656, 03MAR06
  MIC: 0.25 mg/L
[3]; Staphylococcus aureus, MSSA isolate 1662, 03MAR06
  MIC: 0.25 mg/L
[3]; Staphylococcus aureus, MSSA isolate 1663, 03MAR06
  MIC: 0.25 mg/L
[3]; Staphylococcus aureus, MSSA isolate 1666, 03MAR06
  MIC: 0.25 mg/L
[3]; Staphylococcus aureus, MSSA isolate 1667, 03MAR06
  MIC: 0.25 mg/L
[3]; Staphylococcus aureus, MSSA isolate 1668, 03MAR06
  MIC: 0.25 mg/L
[3]; Staphylococcus aureus, MSSA isolate 1671, 03MAR06
  MIC: 0.25 mg/L
[3]; Staphylococcus aureus, MSSA isolate 1728, 03MAR06
  MIC: 0.25 mg/L
[3]; Staphylococcus aureus, MSSA isolate 1728, retest 09MAR06
  MIC: 0.12 mg/L
[3]; [6]
  MIC50: 0.25 mg/L
  MIC90: 0.25 mg/L
[4]; 4 VISE isolates, combinations at 2.5:1
  MIC Range: 0.5 to 16 mg/L
[4]; Staphylococcus epidermidis, VISE isolate 2020, 09MAR06
  MIC: 8 mg/L
[4]; Staphylococcus epidermidis, VISE isolate 2021, 09MAR06
  MIC: 0.5 mg/L
[4]; Staphylococcus epidermidis, VISE isolate 2022, 03MAR06
  MIC: 16 mg/L
[4]; Staphylococcus epidermidis, VISE isolate 2023, 03MAR06
  MIC: 2 mg/L
[4]; Staphylococcus epidermidis, 4 VISE isolates, combinations at 2.5:1
  MIC50: 2 mg/L
[5]; MRSA isolate 757, 24FEB06
  MIC: 32 mg/L
[5]; MRSA isolate 758, 03MAR06
  MIC: > 32 mg/L
[5]; MRSA isolate 758, 24FEB06
  MIC: > 32 mg/L
[5]; MRSA isolate 760, 03MAR06
  MIC: > 32 mg/L
[5]; MRSA isolate 760, 24FEB06
  MIC: > 32 mg/L
[5]; MRSA isolate 763, 22FEB06
  MIC: 32 mg/L
[5]; MRSA isolate 765, 22FEB06
  MIC: > 32 mg/L
[5]; MRSA isolate 766, 22FEB06
  MIC: > 32 mg/L
[5]; MRSA isolate 767, 22FEB06
  MIC: 16 mg/L
[5]; MRSA isolate 768, 22FEB06
  MIC: 8 mg/L
[5]; MRSA isolate 769, 22FEB06
  MIC: 16 mg/L
[5]; MRSA isolate 770, 22FEB06
  MIC: 16 mg/L
[5]; MRSA isolate 771, 22FEB06
  MIC: > 32 mg/L
[5]; MRSA isolate 772, 22FEB06
  MIC: 32 mg/L
[5]; MRSA isolate 773, 24FEB06
  MIC: 8 mg/L
[5]; MRSA isolate 774, 24FEB06
  MIC: 32 mg/L
[5]; MRSA isolate 775, 24FEB06
  MIC: > 32 mg/L
[5]; MRSA isolate 776, 24FEB06
  MIC: > 32 mg/L
[5]; MRSA isolate 777, 24FEB06
  MIC: 32 mg/L
[5]; MRSA isolate 778, 24FEB06
  MIC: > 32 mg/L
[5]; MRSA isolate 886, 24FEB06
  MIC: 32 mg/L
[5]; MRSA isolate 887, 24FEB06
  MIC: > 32 mg/L
[5]; MRSA isolate 888, 24FEB06
  MIC: > 32 mg/L
[5]; MRSA isolate 889, 24FEB06
  MIC: > 32 mg/L
[5]; MRSA isolate 1004, 24FEB06
  MIC: 8 mg/L
[5]; MRSA isolate 1010, 22FEB06
  MIC: 32 mg/L
[5]; MRSA isolate 1012, 22FEB06
  MIC: > 32 mg/L
[5]; MRSA isolate 1013, 22FEB06
  MIC: 32 mg/L
[5]; MRSA isolate 1014, 22FEB06
  MIC: 32 mg/L
[5]; MRSA isolate 1015, 22FEB06
  MIC: 32 mg/L
[5]; MRSA isolate 1016, 22FEB06
  MIC: 8 mg/L
[5]; MRSA isolate 1017, 22FEB06
  MIC: 16 mg/L
[5]; MRSA isolate 1021, 22FEB06
  MIC: 32 mg/L
[5]; MRSA isolate 1022, 22FEB06
  MIC: 8 mg/L
[5]; MRSA isolate 1023, 22FEB06
  MIC: 4 mg/L
[5]; MRSA isolate 1024, 22FEB06
  MIC: 16 mg/L
[5]; MRSA isolate 1025, 22FEB06
  MIC: 16 mg/L
[5]; MRSA isolate 1135, 22FEB06
  MIC: 32 mg/L
[5]; MRSA isolate 1136, 22FEB06
  MIC: 32 mg/L
[5]; MRSA isolate 1137, 22FEB06
  MIC: > 32 mg/L
[5]; MRSA isolate 1138, 22FEB06
  MIC: 8 mg/L
[5]; MRSA isolate 1222, 03MAR06
  MIC: 32 mg/L
[5]; MRSA isolate 1222, 24FEB06
  MIC: 32 mg/L
[5]; MRSA isolate 1653, 03MAR06
  MIC: > 32 mg/L
[5]; MRSA isolate 1658, 03MAR06
  MIC: 16 mg/L
[5]; MRSA isolate 1659, 03MAR06
  MIC: 16 mg/L
[5]; MRSA isolate 1661, 03MAR06
  MIC: > 32 mg/L
[5]; MRSA isolate 1729, 03MAR06
  MIC: > 32 mg/L
[5]; MRSA isolate 1730, 24FEB06
  MIC: 32 mg/L
[5]; MRSA isolate 2009, 24FEB06
  MIC: > 32 mg/L
[5]; MRSA isolate 2010, 24FEB06
  MIC: 16 mg/L
[5]; MRSA isolate 2011, 24FEB06
  MIC: 32 mg/L
[5]; [7]
  MIC50: 32 mg/L
  MIC90: > 32 mg/L
